Measured values: PubChem BioAssay AID256 (DTP/NCI, 2004)
Several values for one entry are separate records, joined by “and”; a condition that tells them apart may be missing. Identical values can stand only once. Inconclusive results and toxic doses are left out. How the source made its calls: active means survival T/C of 150% or more; inactive means T/C below 125% in these data.

Tested on: CD2F1 mice, L1210 leukemia ip, survival T/C
Experiment: NCI In Vivo Anticancer Drug Screen. Data for tumor model L1210 Leukemia (intraperitoneal) in CD2F1 (CDF1) mice
Conditions: higher = longer survival
Outline: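 Each value reflects a quotient of treated over vehicle control outcomes in mice with a transplanted tumor.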

[1] = endpoint: mean survival time, dose: 100.0 mg/kg/injection, schedule: Q04DX003 (ip), vehicle: saline with Tween-80
[2] = endpoint: mean survival time, dose: 200.0 mg/kg/injection, schedule: Q04DX003 (ip), vehicle: saline with Tween-80
[3] = endpoint: mean survival time, dose: 400.0 mg/kg/injection, schedule: Q04DX003 (ip), vehicle: saline with Tween-80
[4] = endpoint: mean survival time, dose: 12.5 mg/kg/injection, schedule: Q01DX009 (ip), vehicle: saline
[5] = endpoint: mean survival time, dose: 25.0 mg/kg/injection, schedule: Q01DX009 (ip), vehicle: saline
[6] = endpoint: mean survival time, dose: 50.0 mg/kg/injection, schedule: Q01DX009 (ip), vehicle: saline
[7] = endpoint: mean survival time, dose: 100.0 mg/kg/injection, schedule: Q01DX009 (ip), vehicle: saline
[8] = endpoint: mean survival time, dose: 200.0 mg/kg/injection, schedule: Q01DX009 (ip), vehicle: saline
[9] = endpoint: mean survival time, dose: 100.0 mg/kg/injection, schedule: Q01DX001 (ip), vehicle: saline
[10] = endpoint: mean survival time, dose: 200.0 mg/kg/injection, schedule: Q01DX001 (ip), vehicle: saline
[11] = endpoint: mean survival time, dose: 400.0 mg/kg/injection, schedule: Q01DX001 (ip), vehicle: saline
[12] = endpoint: mean survival time, dose: 100.0 mg/kg/injection, schedule: Q01DX009 (ip), vehicle: saline with Tween-80
[13] = endpoint: mean survival time, dose: 200.0 mg/kg/injection, schedule: Q01DX009 (ip), vehicle: saline with Tween-80
[14] = endpoint: mean survival time, dose: 400.0 mg/kg/injection, schedule: Q01DX009 (ip), vehicle: saline with Tween-80

Measured: T/C

O=C(O)c1ccc([N+](=O)[O-])cc1.[Ag]
inactive: endpoint: mean survival time, dose: 3.13 mg/kg/injection, schedule: Q01DX009 (ip), vehicle: saline with Tween-80 102 % of control | endpoint: mean survival time, dose: 6.25 mg/kg/injection, schedule: Q01DX009 (ip), vehicle: saline with Tween-80 102 % of control | endpoint: mean survival time, dose: 6.25 mg/kg/injection, schedule: Q04DX003 (ip), vehicle: saline with Tween-80 96 % of control | endpoint: mean survival time, dose: 12.5 mg/kg/injection, schedule: Q01DX009 (ip), vehicle: saline with Tween-80 98 % of control | endpoint: mean survival time, dose: 12.5 mg/kg/injection, schedule: Q04DX003 (ip), vehicle: saline with Tween-80 96 % of control

COC1CC(C)OC(OC2C(C)/C=C/C(=O)OC(C)C(COC3OC(C)C(O)C(OC)C3OC)C3OC3/C=C/C(=O)C(C)(O)CC2C)C1O (centres undefined)
inactive: endpoint: mean survival time, dose: 125.0 mg/kg/injection, schedule: Q01DX001 (ip), vehicle: saline sonified 100 % of control | endpoint: mean survival time, dose: 250.0 mg/kg/injection, schedule: Q01DX001 (ip), vehicle: saline sonified 101 % of control | endpoint: mean survival time, dose: 500.0 mg/kg/injection, schedule: Q01DX001 (ip), vehicle: saline sonified 95 % of control

O=C(Nc1ccccc1)O/N=C(/c1ccccc1)c1ccccn1
inactive: endpoint: mean survival time, dose: 100.0 mg/kg/injection, schedule: Q01DX001 (ip), vehicle: other 104 % of control | endpoint: mean survival time, dose: 200.0 mg/kg/injection, schedule: Q01DX001 (ip), vehicle: other 98 % of control | endpoint: mean survival time, dose: 400.0 mg/kg/injection, schedule: Q01DX001 (ip), vehicle: other 101 % of control

Cn1cccc1-c1cccnc1
inactive: endpoint: mean survival time, dose: 75.0 mg/kg/injection, schedule: Q01DX001 (ip), vehicle: saline 97 % of control | endpoint: mean survival time, dose: 150.0 mg/kg/injection, schedule: Q01DX001 (ip), vehicle: saline 100 % of control

Clc1ccc(OCCOc2ccc(Cl)cc2Cl)c(Cl)c1
inactive: [1] 95 % of control | [2] 106 % of control | [3] 100 % of control

O/N=C1\CCCCC1C(O)(/C(=N/O)c1ccccc1)c1ccccc1 (centres undefined)
inactive: endpoint: mean survival time, dose: 100.0 mg/kg/injection, schedule: Q01DX001 (ip), vehicle: saline with Tween-80 96 % of control | endpoint: mean survival time, dose: 200.0 mg/kg/injection, schedule: Q01DX001 (ip), vehicle: saline with Tween-80 86 % of control | endpoint: mean survival time, dose: 400.0 mg/kg/injection, schedule: Q01DX001 (ip), vehicle: saline with Tween-80 91 % of control

Cc1cn(C2CC(O)C(CO)O2)c(=O)[nH]c1=O (centres undefined)
inactive: [4] 95 % of control and 104 % of control | [5] 91 % of control and 103 % of control | [6] 91 % of control and 104 % of control | [7] 98 % of control | [8] 95 % of control and 103 % of control | endpoint: mean survival time, dose: 250.0 mg/kg/injection, schedule: Q03HX008 (ip), vehicle: saline 102 % of control | endpoint: mean survival time, dose: 400.0 mg/kg/injection, schedule: Q01DX009 (ip), vehicle: saline 92 % of control | endpoint: mean survival time, dose: 500.0 mg/kg/injection, schedule: Q03HX008 (ip), vehicle: saline 110 % of control | endpoint: mean survival time, dose: 1000.0 mg/kg/injection, schedule: Q03HX008 (ip), vehicle: saline 102 % of control

NC(=S)N/N=C/c1cc([N+](=O)[O-])ccc1O
inactive: endpoint: mean survival time, dose: 50.0 mg/kg/injection, schedule: Q01DX009 (ip), vehicle: Klucel (hydroxypropylcellulose) (HPC) 113 % of control | endpoint: mean survival time, dose: 100.0 mg/kg/injection, schedule: Q01DX009 (ip), vehicle: Klucel (hydroxypropylcellulose) (HPC) 97 % of control | endpoint: mean survival time, dose: 200.0 mg/kg/injection, schedule: Q01DX009 (ip), vehicle: Klucel (hydroxypropylcellulose) (HPC) 101 % of control

Cc1ccccc1N1OS(=O)(=O)CC1(C#N)c1ccccc1 (centres undefined)
inactive: [9] 106 % of control | endpoint: mean survival time, dose: 100.0 mg/kg/injection, schedule: Q04DX003 (ip), vehicle: saline 98 % of control | [10] 100 % of control | endpoint: mean survival time, dose: 200.0 mg/kg/injection, schedule: Q04DX003 (ip), vehicle: saline 101 % of control | [11] 102 % of control | endpoint: mean survival time, dose: 400.0 mg/kg/injection, schedule: Q04DX003 (ip), vehicle: saline 96 % of control

[C-]#[N+]C1CCCCC1.[C-]#[N+]C1CCCCC1.[Pd].[S-]c1ccccc1.[S-]c1ccccc1
inactive: endpoint: mean survival time, dose: 3.13 mg/kg/injection, schedule: Q04DX003 (ip), vehicle: distilled water + Tween-80 102 % of control | endpoint: mean survival time, dose: 6.25 mg/kg/injection, schedule: Q04DX003 (ip), vehicle: distilled water + Tween-80 99 % of control | endpoint: mean survival time, dose: 12.5 mg/kg/injection, schedule: Q04DX003 (ip), vehicle: distilled water + Tween-80 89 % of control | endpoint: mean survival time, dose: 25.0 mg/kg/injection, schedule: Q04DX003 (ip), vehicle: distilled water + Tween-80 91 % of control | endpoint: mean survival time, dose: 50.0 mg/kg/injection, schedule: Q04DX003 (ip), vehicle: distilled water + Tween-80 95 % of control | endpoint: mean survival time, dose: 100.0 mg/kg/injection, schedule: Q04DX003 (ip), vehicle: distilled water + Tween-80 89 % of control | endpoint: mean survival time, dose: 200.0 mg/kg/injection, schedule: Q04DX003 (ip), vehicle: distilled water + Tween-80 95 % of control

O=C(C1=C/C(=C\c2ccccc2)CCC1)c1ccccc1
inactive: [12] 98 % of control | [1] 104 % of control | [13] 94 % of control | [2] 100 % of control | [14] 88 % of control | [3] 102 % of control

Cc1nnc(-c2cn(C3OC(CO)C(O)C3O)c3ncnc(N)c23)nc1C (centres undefined)
inactive: endpoint: mean survival time, dose: 100.0 mg/kg/injection, schedule: Q01DX005 (ip), vehicle: saline 97 % of control | endpoint: mean survival time, dose: 200.0 mg/kg/injection, schedule: Q01DX005 (ip), vehicle: saline 96 % of control

Cn1c(N)c(C2OC(=O)c3ccccc32)c(=O)n(C)c1=O (centres undefined)
inactive: endpoint: mean survival time, dose: 100.0 mg/kg/injection, schedule: Q04DX002 (ip), vehicle: Klucel (hydroxypropylcellulose) (HPC) 98 % of control | endpoint: mean survival time, dose: 200.0 mg/kg/injection, schedule: Q04DX002 (ip), vehicle: Klucel (hydroxypropylcellulose) (HPC) 98 % of control

C=CCN(CC=C)P(=O)(N1CC1C)N1CC1C (centres undefined)
inactive: endpoint: mean survival time, dose: 1.0 mg/kg/injection, schedule: Q01DX009 (ip), vehicle: saline 122 % of control | endpoint: mean survival time, dose: 2.5 mg/kg/injection, schedule: Q01DX001 (ip), vehicle: saline 115 % of control

CCCCCCCCCCCCCCC/C(=C\c1ccc2ccccc2c1)[N+](=O)[O-]
inactive: endpoint: mean survival time, dose: 75.0 mg/kg/injection, schedule: Q01DX001 (ip), vehicle: other 95 % of control | endpoint: mean survival time, dose: 150.0 mg/kg/injection, schedule: Q01DX001 (ip), vehicle: other 89 % of control | endpoint: mean survival time, dose: 300.0 mg/kg/injection, schedule: Q01DX001 (ip), vehicle: other 102 % of control

Nc1ccc(CCC(=O)Nc2ccc(S(=O)(=O)F)cc2)cc1
inactive: [9] 97 % of control | [10] 102 % of control | [11] 97 % of control

COC(=O)c1cc(C(=O)OC)c(C(=O)OC)cc1C(=O)OC
inactive: [1] 97 % of control | [2] 92 % of control | [3] 89 % of control

O=C(O)CC(=O)O.[NH-]CC(O)CN(Cc1ccccc1)CC(O)CN.[Pt+2] (centres undefined)
inactive: endpoint: median survival time, dose: 2.5 mg/kg/injection, schedule: Q04DX003 (ip), vehicle: water 102 % of control | endpoint: median survival time, dose: 5.0 mg/kg/injection, schedule: Q04DX003 (ip), vehicle: water 101 % of control | endpoint: median survival time, dose: 10.0 mg/kg/injection, schedule: Q04DX003 (ip), vehicle: water 108 % of control | endpoint: median survival time, dose: 12.5 mg/kg/injection, schedule: Q04DX003 (ip), vehicle: water 104 % of control | endpoint: median survival time, dose: 20.0 mg/kg/injection, schedule: Q04DX003 (ip), vehicle: water 111 % of control | endpoint: median survival time, dose: 25.0 mg/kg/injection, schedule: Q04DX003 (ip), vehicle: water 102 % of control | endpoint: median survival time, dose: 50.0 mg/kg/injection, schedule: Q04DX003 (ip), vehicle: water 104 % of control | endpoint: median survival time, dose: 100.0 mg/kg/injection, schedule: Q04DX003 (ip), vehicle: water 108 % of control

C=CCOCC1CO1 (centres undefined)
inactive: [4] 102 % of control and 103 % of control | [5] 102 % of control and 111 % of control | endpoint: mean survival time, dose: 50.0 mg/kg/injection, schedule: Q01DX009 (ip), vehicle: saline with Tween-80 100 % of control | [6] 98 % of control and 108 % of control | [12] 97 % of control | [7] 94 % of control and 104 % of control | [13] 103 % of control | [8] 114 % of control and 105 % of control | [14] 105 % of control

CC(C)CC(C)COC(=O)c1c(Cl)c(Cl)c(Cl)c(Cl)c1C(=O)O (centres undefined)
inactive: [9] 90 % of control | [10] 90 % of control
